Measurements reported in ChEMBL document CHEMBL5465560, “Selectivity Literature for EUbOPEN Chemogenomic Library” (2024).

Columns and labels:
[1] = molecular target: T1, Tyrosine-protein kinase ZAP-70 (Homo sapiens) (UniProt P43403); experiment: Selectivity interaction (KinomeScan (DiscoverX)) EUB0000092b ZAP70; conditions: at 10 µM
T1 sequence (whole entry): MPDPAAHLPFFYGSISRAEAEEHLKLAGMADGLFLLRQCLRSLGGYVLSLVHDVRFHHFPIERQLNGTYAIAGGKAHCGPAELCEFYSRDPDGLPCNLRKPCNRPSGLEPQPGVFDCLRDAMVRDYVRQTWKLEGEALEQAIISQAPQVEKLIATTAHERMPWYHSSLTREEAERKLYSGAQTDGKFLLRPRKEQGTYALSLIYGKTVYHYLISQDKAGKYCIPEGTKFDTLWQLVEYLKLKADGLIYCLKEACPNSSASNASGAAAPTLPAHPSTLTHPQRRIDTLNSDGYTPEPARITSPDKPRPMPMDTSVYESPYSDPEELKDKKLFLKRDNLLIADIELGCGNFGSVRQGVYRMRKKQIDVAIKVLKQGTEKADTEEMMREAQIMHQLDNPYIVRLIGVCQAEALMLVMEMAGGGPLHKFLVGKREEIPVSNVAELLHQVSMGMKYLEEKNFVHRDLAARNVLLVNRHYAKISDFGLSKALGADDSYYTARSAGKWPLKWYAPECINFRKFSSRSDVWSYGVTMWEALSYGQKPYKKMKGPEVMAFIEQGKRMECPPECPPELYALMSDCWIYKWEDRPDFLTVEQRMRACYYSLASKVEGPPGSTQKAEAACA

[2] = molecular target: Dual specificity protein kinase CLK2 (Homo sapiens, UniProt P49760); experiment: Selectivity interaction (KinomeScan (DiscoverX)) EUB0000655a CLK2; conditions: at 10 µM
[3] = molecular target: T2, Phosphatidylinositol 5-phosphate 4-kinase type-2 gamma (Homo sapiens) (UniProt Q8TBX8); experiment: Selectivity interaction (Kinase panel (KiNativ target engagement assay in Jurkat cells)) EUB0001635a PIP4K2C; assay type: cell-based; conditions: Selectivity number of off-targets 0.0, Selectivity number of targets 233.0, Source Knowledge https://www.sciencedirect.com/science/article/pii/S2451945619300674?via%3Dihub, at 1 µM
T2 sequence (whole entry): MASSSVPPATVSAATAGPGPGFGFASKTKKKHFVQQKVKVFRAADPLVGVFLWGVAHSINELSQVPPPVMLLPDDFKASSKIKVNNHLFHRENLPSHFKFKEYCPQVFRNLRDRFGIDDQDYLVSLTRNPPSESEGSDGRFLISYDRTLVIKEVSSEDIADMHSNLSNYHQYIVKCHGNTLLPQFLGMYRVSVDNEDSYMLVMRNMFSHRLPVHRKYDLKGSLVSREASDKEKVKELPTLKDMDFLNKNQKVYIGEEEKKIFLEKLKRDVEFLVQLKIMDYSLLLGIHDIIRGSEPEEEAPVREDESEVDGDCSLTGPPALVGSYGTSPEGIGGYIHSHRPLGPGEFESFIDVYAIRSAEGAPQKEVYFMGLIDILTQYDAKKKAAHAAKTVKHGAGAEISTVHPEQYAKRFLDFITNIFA

[4] = molecular target: T3, Peregrin (Homo sapiens) (UniProt P55201); experiment: Selectivity interaction (PWWP, WD40, and Tudor domain panel (DSLS measurements, literature)) EUB0000270b BRPF1
T3 sequence (whole entry): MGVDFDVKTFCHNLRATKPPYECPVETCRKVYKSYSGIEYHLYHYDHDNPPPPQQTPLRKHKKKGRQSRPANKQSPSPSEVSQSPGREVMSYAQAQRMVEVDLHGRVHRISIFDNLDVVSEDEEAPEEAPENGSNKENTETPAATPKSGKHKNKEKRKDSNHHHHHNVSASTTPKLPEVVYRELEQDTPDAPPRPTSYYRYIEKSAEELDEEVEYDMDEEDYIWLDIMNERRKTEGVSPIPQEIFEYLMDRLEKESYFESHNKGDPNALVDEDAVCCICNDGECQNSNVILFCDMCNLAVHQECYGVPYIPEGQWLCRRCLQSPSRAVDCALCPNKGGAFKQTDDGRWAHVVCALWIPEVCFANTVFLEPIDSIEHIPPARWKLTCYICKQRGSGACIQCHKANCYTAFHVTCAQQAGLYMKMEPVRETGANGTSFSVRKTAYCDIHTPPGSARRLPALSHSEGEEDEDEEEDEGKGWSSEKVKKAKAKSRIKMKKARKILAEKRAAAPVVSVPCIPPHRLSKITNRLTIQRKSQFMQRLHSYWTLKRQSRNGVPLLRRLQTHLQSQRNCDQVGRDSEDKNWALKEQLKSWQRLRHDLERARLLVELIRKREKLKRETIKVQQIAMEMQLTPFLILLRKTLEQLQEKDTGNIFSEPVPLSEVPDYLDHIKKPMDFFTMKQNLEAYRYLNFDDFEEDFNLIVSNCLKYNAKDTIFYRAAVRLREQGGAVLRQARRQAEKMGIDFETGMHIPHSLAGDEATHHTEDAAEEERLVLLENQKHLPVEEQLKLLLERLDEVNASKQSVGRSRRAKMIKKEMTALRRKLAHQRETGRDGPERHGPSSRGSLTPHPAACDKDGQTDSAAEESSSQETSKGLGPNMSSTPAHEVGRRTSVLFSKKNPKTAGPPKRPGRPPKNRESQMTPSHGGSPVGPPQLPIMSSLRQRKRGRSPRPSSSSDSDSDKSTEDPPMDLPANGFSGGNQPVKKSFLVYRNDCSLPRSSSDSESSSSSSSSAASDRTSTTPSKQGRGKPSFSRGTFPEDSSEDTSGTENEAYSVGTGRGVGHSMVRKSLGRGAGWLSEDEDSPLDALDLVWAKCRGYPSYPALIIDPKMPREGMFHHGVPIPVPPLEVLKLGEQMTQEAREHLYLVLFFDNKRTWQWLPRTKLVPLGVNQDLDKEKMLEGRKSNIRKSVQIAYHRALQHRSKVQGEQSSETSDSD

[5] = molecular target: STE20-like serine/threonine-protein kinase (Homo sapiens, UniProt Q9H2G2); experiment: Selectivity interaction (ActivX KiNativ screen (kinase selectivity in THP-1 cell lysates)) EUB0000639a SLK; assay type: subcellular; conditions: lysate, at 0.04 µM
[6] = molecular target: STE20/SPS1-related proline-alanine-rich protein kinase (Homo sapiens) (UniProt Q9UEW8); experiment: Selectivity interaction (ActivX KiNativ screen (kinase selectivity in THP-1 cell lysates)) EUB0000639a STK39; assay type: subcellular; conditions: lysate
[7] = molecular target: ALK tyrosine kinase receptor (Homo sapiens, UniProt Q9UM73); experiment: Selectivity interaction (KinomeScan (DiscoverX)) EUB0000595a ALK; conditions: at 10 µM
[8] = molecular target: Mitogen-activated protein kinase kinase kinase 20 (Homo sapiens) (UniProt Q9NYL2); experiment: Selectivity interaction (KinomeScan (DiscoverX)) EUB0000045b MAP3K20
[9] = molecular target: Protein kinase C theta type (Homo sapiens, UniProt Q04759); experiment: Selectivity interaction (Kinase screening (Upstate/Millipore)) EUB0000604a PRKCQ
Protein kinase C theta type, sequence (Q04759 whole entry, looked up): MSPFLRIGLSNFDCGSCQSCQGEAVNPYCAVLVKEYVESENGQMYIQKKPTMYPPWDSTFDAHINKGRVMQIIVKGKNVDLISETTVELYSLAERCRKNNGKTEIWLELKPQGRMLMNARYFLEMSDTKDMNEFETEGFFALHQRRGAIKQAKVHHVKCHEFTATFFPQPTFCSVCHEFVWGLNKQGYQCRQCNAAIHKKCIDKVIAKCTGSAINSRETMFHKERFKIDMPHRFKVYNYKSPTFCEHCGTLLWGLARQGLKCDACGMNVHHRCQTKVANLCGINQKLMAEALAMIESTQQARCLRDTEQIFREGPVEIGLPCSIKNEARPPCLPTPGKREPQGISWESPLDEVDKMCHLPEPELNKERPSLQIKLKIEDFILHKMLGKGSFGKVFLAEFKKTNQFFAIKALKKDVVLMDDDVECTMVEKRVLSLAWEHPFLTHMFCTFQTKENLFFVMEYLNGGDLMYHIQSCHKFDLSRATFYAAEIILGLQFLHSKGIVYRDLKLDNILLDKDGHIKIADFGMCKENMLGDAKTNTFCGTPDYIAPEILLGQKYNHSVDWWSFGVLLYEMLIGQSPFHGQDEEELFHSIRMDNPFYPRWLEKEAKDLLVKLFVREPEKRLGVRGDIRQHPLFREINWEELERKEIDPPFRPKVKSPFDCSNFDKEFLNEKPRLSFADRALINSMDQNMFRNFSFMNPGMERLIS

Mitogen-activated protein kinase kinase kinase 20 (Homo sapiens), sequence (Q9NYL2 2-800 limits assumed): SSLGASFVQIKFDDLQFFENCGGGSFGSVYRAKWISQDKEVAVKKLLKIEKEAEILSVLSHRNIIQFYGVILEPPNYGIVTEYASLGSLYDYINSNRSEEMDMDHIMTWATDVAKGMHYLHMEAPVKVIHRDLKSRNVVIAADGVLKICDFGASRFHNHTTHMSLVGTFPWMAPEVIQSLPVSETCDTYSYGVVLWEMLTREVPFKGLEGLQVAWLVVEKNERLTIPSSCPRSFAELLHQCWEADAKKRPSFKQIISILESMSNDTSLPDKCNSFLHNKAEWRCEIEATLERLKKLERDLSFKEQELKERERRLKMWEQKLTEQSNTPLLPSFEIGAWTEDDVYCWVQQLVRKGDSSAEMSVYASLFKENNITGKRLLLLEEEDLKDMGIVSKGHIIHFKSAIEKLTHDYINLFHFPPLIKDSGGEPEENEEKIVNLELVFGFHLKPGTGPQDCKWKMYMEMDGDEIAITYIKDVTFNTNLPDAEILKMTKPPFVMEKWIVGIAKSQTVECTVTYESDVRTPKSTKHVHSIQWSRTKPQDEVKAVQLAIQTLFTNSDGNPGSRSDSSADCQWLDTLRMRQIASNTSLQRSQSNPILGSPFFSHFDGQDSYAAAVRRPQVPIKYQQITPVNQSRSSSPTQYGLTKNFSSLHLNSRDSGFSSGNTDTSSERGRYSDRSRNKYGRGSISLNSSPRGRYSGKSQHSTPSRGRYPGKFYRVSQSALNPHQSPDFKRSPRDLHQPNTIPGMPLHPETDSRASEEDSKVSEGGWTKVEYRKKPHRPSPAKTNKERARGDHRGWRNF
STE20-like serine/threonine-protein kinase, sequence (Q9H2G2 whole entry, looked up): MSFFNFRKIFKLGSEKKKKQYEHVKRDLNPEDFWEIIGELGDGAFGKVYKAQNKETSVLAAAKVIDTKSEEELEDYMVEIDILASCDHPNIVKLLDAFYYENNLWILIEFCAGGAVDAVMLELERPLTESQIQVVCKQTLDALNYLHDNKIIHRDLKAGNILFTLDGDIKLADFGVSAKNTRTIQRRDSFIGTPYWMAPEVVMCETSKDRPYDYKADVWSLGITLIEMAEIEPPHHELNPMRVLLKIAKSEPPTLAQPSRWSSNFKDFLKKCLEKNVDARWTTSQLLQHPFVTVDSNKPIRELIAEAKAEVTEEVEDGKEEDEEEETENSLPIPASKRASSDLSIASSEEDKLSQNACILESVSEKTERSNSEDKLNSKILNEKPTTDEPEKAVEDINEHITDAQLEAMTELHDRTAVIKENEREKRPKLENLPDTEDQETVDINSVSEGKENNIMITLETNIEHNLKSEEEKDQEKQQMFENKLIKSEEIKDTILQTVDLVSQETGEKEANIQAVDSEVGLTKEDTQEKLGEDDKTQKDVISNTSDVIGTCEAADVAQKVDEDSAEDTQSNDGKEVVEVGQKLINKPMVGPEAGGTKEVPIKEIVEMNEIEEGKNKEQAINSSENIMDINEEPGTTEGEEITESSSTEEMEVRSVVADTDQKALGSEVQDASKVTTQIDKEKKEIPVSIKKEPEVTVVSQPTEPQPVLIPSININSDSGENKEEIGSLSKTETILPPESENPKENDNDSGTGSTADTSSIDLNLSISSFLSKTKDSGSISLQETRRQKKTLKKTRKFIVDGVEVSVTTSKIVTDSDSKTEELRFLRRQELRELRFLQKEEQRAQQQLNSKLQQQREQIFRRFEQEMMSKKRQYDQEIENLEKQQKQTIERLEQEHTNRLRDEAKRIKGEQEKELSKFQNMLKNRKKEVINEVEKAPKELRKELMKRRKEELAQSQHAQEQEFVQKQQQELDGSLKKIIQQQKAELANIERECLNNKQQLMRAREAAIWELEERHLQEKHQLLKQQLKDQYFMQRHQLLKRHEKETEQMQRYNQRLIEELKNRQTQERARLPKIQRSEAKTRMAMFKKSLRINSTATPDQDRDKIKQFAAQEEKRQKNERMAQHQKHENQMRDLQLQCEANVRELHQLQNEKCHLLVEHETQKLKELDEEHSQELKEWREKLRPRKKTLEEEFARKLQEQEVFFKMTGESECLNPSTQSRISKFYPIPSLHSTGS
ALK tyrosine kinase receptor, sequence (Q9UM73 19-1620 limits assumed): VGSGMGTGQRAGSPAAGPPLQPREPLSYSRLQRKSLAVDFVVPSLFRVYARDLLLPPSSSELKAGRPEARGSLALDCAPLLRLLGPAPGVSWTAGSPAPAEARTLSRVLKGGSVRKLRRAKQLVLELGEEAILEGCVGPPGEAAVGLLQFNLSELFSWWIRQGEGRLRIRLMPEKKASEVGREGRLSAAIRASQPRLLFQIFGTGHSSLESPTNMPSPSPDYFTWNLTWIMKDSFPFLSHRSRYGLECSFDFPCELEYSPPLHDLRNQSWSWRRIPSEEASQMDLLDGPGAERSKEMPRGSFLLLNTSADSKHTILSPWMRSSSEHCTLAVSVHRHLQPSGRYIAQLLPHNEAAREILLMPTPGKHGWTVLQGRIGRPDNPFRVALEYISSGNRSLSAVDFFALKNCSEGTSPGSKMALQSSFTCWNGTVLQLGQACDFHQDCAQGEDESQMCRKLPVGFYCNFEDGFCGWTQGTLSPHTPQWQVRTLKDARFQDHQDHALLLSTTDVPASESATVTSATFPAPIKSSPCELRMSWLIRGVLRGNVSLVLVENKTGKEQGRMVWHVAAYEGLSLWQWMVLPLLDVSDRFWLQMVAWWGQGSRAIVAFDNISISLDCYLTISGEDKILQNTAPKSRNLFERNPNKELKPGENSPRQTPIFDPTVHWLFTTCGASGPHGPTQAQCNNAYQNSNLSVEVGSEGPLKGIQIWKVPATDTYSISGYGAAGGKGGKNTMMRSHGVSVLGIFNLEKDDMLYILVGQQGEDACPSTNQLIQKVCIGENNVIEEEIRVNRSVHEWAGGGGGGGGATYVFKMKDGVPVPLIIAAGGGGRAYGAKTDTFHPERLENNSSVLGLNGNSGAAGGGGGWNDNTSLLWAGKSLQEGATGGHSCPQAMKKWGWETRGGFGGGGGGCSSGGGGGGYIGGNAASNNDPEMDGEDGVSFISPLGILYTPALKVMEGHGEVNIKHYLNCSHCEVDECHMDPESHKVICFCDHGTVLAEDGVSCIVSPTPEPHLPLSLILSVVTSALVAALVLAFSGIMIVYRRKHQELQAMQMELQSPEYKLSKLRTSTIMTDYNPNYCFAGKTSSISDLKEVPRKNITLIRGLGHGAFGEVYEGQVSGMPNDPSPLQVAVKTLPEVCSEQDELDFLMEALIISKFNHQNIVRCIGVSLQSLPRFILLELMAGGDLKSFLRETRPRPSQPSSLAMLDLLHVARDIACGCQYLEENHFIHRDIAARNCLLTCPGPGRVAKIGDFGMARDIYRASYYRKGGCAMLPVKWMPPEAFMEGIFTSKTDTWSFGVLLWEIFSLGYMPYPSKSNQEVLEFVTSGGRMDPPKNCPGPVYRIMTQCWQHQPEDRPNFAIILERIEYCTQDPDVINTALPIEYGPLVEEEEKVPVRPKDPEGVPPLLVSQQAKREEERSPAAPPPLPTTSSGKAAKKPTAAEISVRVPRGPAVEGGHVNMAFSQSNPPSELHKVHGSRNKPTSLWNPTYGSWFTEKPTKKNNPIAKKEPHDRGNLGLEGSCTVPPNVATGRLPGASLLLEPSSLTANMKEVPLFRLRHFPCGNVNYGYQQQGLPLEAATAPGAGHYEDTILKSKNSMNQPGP
Dual specificity protein kinase CLK2, sequence (P49760 whole entry, looked up): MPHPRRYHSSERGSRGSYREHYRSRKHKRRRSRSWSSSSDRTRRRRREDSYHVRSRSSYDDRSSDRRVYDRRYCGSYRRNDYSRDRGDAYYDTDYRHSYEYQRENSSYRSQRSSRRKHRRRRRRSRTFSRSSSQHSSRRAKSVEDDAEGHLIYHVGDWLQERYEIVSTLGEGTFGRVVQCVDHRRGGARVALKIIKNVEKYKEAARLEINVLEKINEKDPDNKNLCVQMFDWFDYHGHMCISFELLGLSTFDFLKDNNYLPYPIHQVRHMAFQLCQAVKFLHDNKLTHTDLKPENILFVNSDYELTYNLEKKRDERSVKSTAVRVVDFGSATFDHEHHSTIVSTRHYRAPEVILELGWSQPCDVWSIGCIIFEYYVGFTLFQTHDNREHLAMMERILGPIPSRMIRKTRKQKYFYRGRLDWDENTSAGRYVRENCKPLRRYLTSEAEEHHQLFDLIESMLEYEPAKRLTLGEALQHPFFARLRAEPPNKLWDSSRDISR

CCC(=O)N1CCN(c2ccc(-n3c(=O)ccc4cnc5ccc(-c6cnc7ccccc7c6)cc5c43)cc2C(F)(F)F)CC1
% of control [1]: 100%

CN(C)CCOc1ccc(-c2nc(-c3ccncc3)c(-c3ccc4c(c3)CC/C4=N\O)[nH]2)cc1
% of control [2]: 52%

C=CC(=O)Nc1ccc(C(=O)Nc2[nH]nc3c2CN(C(=O)N[C@H](CN(C)C)c2ccccc2)C3(C)C)cc1
% of engagement [3]: -6.5%

Cc1cc(CN)cc(C)c1-c1ncn(C)c1-c1cncn1C
dTagg [4]: 0 K

CC[C@@H]1[C@H](F)C(=O)N[C@@H]1COc1nccc2cc(C(N)=O)c(OC)cc12 [ZIMLOVISERTIB]
% of inhibition [5]: -0.4%
% of inhibition ([6]; at 0.01 µM): 3.8%
% of inhibition ([6]; at 0.04 µM): -1.3%
% of inhibition ([6]; at 0.2 µM): 2.2%
% of inhibition ([6]; at 1 µM): -9.4%
% of inhibition ([6]; at 5 µM): 1.5%

COCC(=O)NC/C=C/c1ccc2ncnc(Nc3ccc(Oc4ccc(C)nc4)c(C)c3)c2c1 [CP-724714]
% of control [7]: 100%

C=CC(=O)Nc1cc(-n2c(=O)ccc3cnc4ccc(-c5ccc(NS(C)(=O)=O)cc5)cc4c32)ccc1C
% of control ([8]; at 1 µM): 64%
% of control ([8]; at 10 µM): 12%

Cc1cnc(Nc2ccc(F)cc2Cl)nc1-c1c[nH]c(C(=O)N[C@H](CO)c2cccc(Cl)c2)c1
% of inhibition [9]: 17%
